Experimental data from ChEMBL document CHEMBL1142235, “Pharmacokinetics and safety of indinavir in human immunodeficiency virus-infected pregnant women” (Antimicrob Agents Chemother, 2007).

Experiments:
[1] = Tmax in HIV1 infected pregnant woman during postpartum period at 800 mg three times/day; format: ADME, organism-based; conditions: female, human, in vivo
Homo sapiens [2] = organism: Homo sapiens; test: AUC (0-8 hrs) in HIV1 infected pregnant woman during antepartum period at 800 mg three times/day; format: ADME, organism-based, Plasma; parameters: dose 800 mg, time < 8 hr; conditions: in vivo
[3] = AUC (0-8 hrs) in HIV1 infected pregnant woman during postpartum period at 800 mg three times/day; format: ADME, organism-based; parameters: dose 800 mg, time < 8 hr; conditions: female, human, plasma
Homo sapiens [4] = organism: Homo sapiens; test: Oral clearance in HIV1 infected pregnant woman during antepartum period at 800 mg three times/day; format: ADME, organism-based; conditions: in vivo
[5] = Oral clearance in HIV1 infected pregnant woman during postpartum period at 800 mg three times/day; format: ADME, organism-based; conditions: female, human, in vivo
[6] = Cmax in HIV1 infected pregnant woman during antepartum period at 800 mg three times/day; format: ADME, organism-based; parameters: dose 800 mg; conditions: female, human, in vivo
[7] = Cmax in HIV1 infected pregnant woman during postpartum period at 800 mg three times/day; format: ADME, organism-based; parameters: dose 800 mg; conditions: female, human, in vivo
[8] = Tmax in HIV1 infected pregnant woman during antepartum period at 800 mg three times/day; format: ADME, organism-based; conditions: female, human, in vivo

Tmax [1]: 1.88 h
AUC (Homo sapiens [2]): 459 µg·min/mL
AUC at 8 h [3]: 23800 ng·h/mL
CL/F (Homo sapiens [4]): 3558 mL/min
CL/F [5]: 697 mL/min
Cmax [6]: 4370 ng/mL
Cmax [7]: 9270 ng/mL
Tmax [8]: 1.85 h
Structure (SMILES): CC(C)(C)NC(=O)[C@@H]1CN(Cc2cccnc2)CCN1C[C@@H](O)C[C@@H](Cc1ccccc1)C(=O)N[C@H]1c2ccccc2C[C@H]1O.O [INDINAVIR]
